This note sets out measurements from ChEMBL document CHEMBL4257082, “Nhe3-binding compounds and methods for inhibiting phosphate transport” (2016).

Assay [1] addresses Sodium/hydrogen exchanger 1 (Rattus norvegicus, UniProt P26431). Kind of assay: Inhibition of rat NHE1.
For assay [2], the target named is T1, Sodium/hydrogen exchanger 2 (Rattus norvegicus, UniProt P48763).
T1 sequence (P48763 whole entry): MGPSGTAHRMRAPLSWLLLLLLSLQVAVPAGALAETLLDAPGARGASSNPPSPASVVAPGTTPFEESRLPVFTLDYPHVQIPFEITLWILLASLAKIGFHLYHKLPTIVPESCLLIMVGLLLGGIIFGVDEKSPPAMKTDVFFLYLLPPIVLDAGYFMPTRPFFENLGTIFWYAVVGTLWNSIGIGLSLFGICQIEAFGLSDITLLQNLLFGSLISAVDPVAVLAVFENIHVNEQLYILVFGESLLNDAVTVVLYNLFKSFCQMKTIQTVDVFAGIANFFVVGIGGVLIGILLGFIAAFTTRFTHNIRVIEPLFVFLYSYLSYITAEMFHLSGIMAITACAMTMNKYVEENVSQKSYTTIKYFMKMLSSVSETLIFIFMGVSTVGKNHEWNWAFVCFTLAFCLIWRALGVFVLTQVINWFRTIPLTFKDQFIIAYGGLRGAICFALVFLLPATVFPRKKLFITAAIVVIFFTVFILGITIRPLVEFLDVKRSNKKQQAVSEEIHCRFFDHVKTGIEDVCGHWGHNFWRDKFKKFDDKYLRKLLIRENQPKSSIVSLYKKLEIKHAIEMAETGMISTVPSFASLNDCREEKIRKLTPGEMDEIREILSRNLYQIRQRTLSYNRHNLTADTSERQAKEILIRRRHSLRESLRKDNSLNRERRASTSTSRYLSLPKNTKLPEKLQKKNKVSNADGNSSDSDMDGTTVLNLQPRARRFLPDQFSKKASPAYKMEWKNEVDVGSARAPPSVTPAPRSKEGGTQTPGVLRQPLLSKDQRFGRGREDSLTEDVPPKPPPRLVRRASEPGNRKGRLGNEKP
Briefly: Inhibition of rat NHE2.

Assay [3] has as its target Sodium/hydrogen exchanger 3 (Rattus norvegicus, UniProt P26433). Kind of assay: Inhibition of rat NHE3.
The species named for assay [4] is Homo sapiens. Briefly: Selectivity ratio of IC50 for NHE3 (unknown origin) to IC50 for NHE1 (unknown origin).
Assay [5] has as its target T2, Sodium/hydrogen exchanger 2 (Oryctolagus cuniculus, UniProt P50482).
T2 sequence (P50482 whole entry): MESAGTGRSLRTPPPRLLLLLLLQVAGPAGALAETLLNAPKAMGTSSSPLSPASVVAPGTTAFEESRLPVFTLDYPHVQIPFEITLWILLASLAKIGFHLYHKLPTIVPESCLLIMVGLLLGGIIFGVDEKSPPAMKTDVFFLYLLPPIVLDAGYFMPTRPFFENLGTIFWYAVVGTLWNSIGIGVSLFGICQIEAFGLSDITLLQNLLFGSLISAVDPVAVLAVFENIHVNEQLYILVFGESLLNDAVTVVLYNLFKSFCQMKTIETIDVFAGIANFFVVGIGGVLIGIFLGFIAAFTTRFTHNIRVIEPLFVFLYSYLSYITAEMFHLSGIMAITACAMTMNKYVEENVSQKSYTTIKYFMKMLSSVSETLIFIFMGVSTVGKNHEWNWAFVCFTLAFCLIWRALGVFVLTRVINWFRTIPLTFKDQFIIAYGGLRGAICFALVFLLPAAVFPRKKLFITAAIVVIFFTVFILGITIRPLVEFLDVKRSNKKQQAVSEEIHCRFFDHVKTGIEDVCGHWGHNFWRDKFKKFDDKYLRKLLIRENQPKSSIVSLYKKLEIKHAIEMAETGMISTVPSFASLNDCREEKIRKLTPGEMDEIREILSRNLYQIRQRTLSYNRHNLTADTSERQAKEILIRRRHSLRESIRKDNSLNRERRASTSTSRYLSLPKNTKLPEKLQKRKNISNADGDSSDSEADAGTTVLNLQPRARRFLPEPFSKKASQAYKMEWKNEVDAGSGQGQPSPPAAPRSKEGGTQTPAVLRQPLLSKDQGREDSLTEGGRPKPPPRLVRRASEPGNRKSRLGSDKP
Briefly: Inhibition of rabbit NHE2.

In assay [6] the target is Sodium/hydrogen exchanger 1 (Oryctolagus cuniculus, UniProt P23791). Kind of assay: Inhibition of rabbit NHE1.
Sodium/hydrogen exchanger 1 (Oryctolagus cuniculus, UniProt P23791), sequence (P23791 whole entry): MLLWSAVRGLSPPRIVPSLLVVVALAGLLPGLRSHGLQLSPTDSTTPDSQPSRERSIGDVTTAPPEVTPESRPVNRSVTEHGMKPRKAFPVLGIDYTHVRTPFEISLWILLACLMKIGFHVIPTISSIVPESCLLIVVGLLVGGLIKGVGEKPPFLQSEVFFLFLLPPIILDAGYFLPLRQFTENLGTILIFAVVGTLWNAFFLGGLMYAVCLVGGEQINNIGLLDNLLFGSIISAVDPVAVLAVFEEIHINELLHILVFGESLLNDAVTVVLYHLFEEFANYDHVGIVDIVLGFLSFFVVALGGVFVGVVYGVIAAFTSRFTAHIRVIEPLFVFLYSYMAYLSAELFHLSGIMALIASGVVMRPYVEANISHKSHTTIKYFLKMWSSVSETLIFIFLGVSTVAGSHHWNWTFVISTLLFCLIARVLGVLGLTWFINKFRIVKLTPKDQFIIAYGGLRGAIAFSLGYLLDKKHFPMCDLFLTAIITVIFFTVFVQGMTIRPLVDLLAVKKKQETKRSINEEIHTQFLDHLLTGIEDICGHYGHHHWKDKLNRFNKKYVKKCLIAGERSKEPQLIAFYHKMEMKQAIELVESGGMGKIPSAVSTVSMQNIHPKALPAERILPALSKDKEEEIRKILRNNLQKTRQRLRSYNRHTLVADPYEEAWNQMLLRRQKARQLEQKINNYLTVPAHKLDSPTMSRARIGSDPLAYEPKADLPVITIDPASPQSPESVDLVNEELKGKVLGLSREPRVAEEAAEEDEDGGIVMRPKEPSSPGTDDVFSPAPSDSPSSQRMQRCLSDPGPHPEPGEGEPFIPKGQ
For assay [7], the target named is T3, Sodium/hydrogen exchanger 5 (Homo sapiens, UniProt Q14940).
T3 sequence (Q14940 whole entry): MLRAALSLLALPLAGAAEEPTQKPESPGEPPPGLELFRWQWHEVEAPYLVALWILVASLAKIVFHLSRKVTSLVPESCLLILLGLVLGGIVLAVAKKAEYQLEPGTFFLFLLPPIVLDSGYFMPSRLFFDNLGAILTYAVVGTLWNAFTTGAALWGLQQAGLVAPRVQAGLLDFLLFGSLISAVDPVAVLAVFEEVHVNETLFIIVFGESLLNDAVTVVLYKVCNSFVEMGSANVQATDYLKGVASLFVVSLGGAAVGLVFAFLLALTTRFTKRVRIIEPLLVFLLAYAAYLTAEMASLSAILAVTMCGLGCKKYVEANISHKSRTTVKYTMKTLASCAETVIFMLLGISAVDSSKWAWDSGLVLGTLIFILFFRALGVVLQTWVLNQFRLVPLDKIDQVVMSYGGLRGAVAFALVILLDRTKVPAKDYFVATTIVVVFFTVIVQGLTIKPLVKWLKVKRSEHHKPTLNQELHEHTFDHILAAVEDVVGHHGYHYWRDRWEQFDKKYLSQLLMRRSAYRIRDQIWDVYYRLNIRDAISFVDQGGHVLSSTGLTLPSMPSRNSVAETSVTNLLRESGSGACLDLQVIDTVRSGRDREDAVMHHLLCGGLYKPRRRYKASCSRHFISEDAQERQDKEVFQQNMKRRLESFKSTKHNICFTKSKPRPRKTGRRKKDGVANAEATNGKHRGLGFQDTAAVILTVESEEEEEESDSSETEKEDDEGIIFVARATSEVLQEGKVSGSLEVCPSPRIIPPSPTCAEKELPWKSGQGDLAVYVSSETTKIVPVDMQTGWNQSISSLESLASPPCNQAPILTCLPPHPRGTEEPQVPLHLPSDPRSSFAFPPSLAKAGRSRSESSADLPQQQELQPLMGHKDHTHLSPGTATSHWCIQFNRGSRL
Kind of assay: Inhibition of NHE5 (unknown origin).

Sodium/hydrogen exchanger 1 (Rattus norvegicus, UniProt P26431), sequence (P26431 whole entry): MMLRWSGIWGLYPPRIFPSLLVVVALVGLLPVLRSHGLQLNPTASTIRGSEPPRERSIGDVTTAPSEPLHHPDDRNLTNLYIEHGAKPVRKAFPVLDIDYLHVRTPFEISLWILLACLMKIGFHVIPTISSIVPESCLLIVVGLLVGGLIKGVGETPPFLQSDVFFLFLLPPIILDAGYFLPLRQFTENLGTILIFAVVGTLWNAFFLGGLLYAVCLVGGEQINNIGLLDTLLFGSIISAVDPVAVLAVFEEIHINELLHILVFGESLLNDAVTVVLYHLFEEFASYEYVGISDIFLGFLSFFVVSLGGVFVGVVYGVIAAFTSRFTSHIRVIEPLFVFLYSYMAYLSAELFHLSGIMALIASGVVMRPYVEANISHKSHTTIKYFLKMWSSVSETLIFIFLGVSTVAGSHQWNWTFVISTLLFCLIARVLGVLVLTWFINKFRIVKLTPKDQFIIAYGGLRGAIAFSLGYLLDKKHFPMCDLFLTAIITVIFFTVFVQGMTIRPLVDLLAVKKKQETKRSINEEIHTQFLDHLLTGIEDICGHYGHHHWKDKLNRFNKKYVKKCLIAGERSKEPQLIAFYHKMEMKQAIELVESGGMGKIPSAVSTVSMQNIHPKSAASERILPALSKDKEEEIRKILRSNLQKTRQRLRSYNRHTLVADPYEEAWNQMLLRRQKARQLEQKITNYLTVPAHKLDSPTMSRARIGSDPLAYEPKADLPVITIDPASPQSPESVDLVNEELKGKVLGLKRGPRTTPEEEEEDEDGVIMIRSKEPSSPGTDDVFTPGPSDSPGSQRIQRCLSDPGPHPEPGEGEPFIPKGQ
Sodium/hydrogen exchanger 3, sequence (P26433 whole entry): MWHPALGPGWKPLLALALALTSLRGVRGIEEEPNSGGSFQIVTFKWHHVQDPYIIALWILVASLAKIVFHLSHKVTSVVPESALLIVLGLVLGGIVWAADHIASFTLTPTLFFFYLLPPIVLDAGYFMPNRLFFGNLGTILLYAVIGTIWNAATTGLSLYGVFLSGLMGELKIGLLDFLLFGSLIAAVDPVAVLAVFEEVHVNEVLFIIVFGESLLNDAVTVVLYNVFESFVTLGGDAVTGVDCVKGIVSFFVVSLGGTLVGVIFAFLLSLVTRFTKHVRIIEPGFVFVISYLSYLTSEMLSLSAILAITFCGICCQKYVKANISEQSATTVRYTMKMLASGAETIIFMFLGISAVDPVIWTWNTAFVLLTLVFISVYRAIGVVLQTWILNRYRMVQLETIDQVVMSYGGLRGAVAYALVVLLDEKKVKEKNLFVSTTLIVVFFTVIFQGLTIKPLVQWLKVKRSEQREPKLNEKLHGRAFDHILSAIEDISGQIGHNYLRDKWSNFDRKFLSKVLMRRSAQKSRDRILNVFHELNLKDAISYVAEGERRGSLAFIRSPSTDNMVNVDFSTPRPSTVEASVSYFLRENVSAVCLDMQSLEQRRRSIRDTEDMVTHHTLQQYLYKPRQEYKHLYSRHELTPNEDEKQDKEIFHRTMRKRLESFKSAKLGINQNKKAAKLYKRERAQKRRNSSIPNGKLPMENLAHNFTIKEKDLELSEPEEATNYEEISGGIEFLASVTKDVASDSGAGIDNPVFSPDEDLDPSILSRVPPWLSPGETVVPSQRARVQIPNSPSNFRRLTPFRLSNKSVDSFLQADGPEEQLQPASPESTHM

In general, IC50 refers to the concentration that inhibits the measured activity by half. A high value points to lower potency. Regarding `CN(C)c1nc(N)c(C(=O)NC(=N)N)nc1Cl`, the IC50 came to 23 nM in assay [1], 250 nM in assay [2] and 14000 nM in assay [3].
For `C/C(=C\c1cccc(/C=C(\C)C(=O)NC(=N)N)c1)C(=O)N=C(N)N`, the Ratio IC50 in assay [4] was above 500.
Turning to `CCN(c1nc(N)c(C(=O)NC(=N)N)nc1Cl)C(C)C` [5-(N-ETHYL-N-ISOPROPYL)AMILORIDE], the IC50 is 10 nM in assay [1]; 500 nM in assay [5]; 20 nM in assay [6]; 2400 nM in assay [3]; 420 nM in assay [7].
